Assay results taken from patent US20150087627A1, “COMBINATION OF KINASE INHIBITORS AND USES THEREOF” (Intellikine LLC, priority 2011, published 2015).
Read-outs that look alike come from different tables or passages of the source.

What was measured:
Format in all cases: biochemical
PI3K α (p110α/p85α) = target: T1, PI3K α (p110α/p85α) (Homo sapiens, UniProt P42336); experiment: PI 3-Kinase (human) HTRF assay, PI3K α; settings: read-out: PI3K α IC50
T1 construct: purchased Upstate / Millipore Corporation

PI3K δ = target: T2, PI3K δ (Homo sapiens, UniProt O00329); experiment: PI 3-Kinase (human) HTRF assay, PI3K δ; settings: read-out: PI3K δ IC50
T2 construct: purchased Upstate / Millipore Corporation

mTOR = target: T3, mTOR (Homo sapiens, UniProt P42345); experiment: mTOR kinase inhibition assay (radiometric or LanthaScreen TR-FRET); settings: read-out: mTORC IC50
T3 construct: purchased Invitrogen

PI3K β (p110β/p85α) = target: T4, PI3K β (p110β/p85α) (Homo sapiens, UniProt P42338); experiment: PI 3-Kinase (human) HTRF assay, PI3K β; settings: read-out: PI3K β IC50
T4 construct: purchased Upstate / Millipore Corporation
Experimental: Briefly, the assay is a time resolved FRET assay that indirectly measures PIP3 product formed by the activity of a PI3-K. The kinase reaction is performed in a microtiter plate (e.g., a 384 well microtiter plate). The total reaction volume is approximately 20 ul per well. In the first step, each well receives 2 ul of test compound in 20% dimethylsulphoxide resulting in a 2% DMSO final concentration. […] The plate is sealed and incubated for 15 minutes at room temperature. […] The plate is sealed and incubated for 1 hour at room temperature. The reaction is stopped by adding 5 ul of Stop Solution per well and then 5 ul of Detection Mix is added per well. The plate is sealed, incubated for 1 hour at room temperature, and then read on an appropriate plate reader. Data is analyzed and IC50s are generated using GraphPad Prism 5.

PI3K γ (p110γ) = target: T5, PI3K γ (p110γ) (Homo sapiens, UniProt P48736); experiment: PI 3-Kinase (human) HTRF assay, PI3K γ; settings: read-out: PI3K γ IC50
T5 construct: purchased Upstate / Millipore Corporation
T5 sequence (P48736 whole entry): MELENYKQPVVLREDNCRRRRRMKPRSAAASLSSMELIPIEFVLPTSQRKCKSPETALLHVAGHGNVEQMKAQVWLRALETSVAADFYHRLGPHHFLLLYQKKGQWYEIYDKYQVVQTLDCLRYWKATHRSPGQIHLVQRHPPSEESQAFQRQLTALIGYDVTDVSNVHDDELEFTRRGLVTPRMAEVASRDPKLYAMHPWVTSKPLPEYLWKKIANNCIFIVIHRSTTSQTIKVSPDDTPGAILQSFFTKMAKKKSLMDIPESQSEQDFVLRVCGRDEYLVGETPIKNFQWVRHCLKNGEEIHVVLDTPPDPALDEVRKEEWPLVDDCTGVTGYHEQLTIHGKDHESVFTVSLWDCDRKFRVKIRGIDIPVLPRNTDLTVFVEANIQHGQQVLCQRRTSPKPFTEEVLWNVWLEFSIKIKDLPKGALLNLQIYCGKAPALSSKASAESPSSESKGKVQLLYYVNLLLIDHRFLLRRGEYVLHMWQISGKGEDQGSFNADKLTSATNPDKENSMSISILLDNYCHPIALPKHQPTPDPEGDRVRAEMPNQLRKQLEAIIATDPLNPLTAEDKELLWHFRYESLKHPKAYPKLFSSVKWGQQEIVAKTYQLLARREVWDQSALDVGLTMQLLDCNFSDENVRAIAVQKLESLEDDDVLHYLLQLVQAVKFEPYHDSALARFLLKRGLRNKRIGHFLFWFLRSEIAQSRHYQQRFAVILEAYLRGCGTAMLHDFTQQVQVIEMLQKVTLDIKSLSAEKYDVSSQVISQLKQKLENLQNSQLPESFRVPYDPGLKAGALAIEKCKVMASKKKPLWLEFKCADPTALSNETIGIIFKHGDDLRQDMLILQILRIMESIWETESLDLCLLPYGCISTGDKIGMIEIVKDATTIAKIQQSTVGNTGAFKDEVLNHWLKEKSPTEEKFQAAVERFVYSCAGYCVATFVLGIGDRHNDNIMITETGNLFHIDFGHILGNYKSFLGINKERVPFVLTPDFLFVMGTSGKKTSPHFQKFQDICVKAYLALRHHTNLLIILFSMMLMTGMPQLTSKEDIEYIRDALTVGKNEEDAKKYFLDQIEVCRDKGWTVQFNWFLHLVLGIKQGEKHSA

T2 sequence (O00329 whole entry): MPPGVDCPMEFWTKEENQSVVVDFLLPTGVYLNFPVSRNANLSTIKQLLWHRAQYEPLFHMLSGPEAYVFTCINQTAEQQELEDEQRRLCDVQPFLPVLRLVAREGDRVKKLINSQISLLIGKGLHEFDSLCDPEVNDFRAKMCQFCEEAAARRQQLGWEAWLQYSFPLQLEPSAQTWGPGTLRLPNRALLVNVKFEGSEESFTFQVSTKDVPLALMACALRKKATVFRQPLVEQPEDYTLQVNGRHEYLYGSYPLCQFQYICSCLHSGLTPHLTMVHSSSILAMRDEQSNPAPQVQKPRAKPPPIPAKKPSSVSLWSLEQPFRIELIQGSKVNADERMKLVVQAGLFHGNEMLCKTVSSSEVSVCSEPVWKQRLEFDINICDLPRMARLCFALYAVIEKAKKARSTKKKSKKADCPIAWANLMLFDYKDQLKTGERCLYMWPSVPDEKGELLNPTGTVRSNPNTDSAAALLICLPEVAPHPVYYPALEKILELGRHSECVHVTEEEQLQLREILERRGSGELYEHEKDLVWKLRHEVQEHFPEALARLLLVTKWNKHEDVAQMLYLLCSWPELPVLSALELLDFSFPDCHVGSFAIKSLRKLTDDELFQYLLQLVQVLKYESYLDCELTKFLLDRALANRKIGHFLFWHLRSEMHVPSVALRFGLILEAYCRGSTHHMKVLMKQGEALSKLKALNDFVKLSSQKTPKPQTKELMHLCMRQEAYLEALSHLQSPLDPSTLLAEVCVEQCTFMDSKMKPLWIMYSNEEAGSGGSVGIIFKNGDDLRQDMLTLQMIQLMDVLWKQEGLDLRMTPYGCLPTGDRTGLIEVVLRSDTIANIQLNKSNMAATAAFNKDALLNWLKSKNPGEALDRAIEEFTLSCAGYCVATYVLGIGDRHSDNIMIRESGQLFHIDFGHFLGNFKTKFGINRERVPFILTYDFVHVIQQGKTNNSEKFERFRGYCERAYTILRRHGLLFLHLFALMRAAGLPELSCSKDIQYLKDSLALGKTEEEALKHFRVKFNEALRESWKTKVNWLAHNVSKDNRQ
T2 sequence (P27986 whole entry partner): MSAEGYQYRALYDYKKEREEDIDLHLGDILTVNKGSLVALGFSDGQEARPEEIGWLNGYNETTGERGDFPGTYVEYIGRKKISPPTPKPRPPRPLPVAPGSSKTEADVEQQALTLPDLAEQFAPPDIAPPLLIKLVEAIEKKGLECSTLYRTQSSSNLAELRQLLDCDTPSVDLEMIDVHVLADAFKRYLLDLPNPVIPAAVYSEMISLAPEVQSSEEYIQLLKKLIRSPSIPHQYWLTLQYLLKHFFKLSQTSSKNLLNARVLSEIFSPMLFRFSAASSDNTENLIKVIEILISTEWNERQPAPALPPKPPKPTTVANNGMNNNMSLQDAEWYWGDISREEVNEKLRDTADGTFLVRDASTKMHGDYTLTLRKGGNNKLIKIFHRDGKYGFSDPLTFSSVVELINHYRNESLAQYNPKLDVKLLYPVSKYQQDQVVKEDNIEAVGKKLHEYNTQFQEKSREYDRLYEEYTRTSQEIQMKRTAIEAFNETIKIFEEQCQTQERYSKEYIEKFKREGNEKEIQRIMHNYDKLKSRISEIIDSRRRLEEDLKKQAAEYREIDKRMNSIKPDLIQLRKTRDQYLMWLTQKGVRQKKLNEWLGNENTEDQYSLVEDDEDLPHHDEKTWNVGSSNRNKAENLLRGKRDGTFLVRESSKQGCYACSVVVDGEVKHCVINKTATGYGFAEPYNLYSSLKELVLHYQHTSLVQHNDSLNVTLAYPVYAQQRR
T4 sequence (P42338 whole entry): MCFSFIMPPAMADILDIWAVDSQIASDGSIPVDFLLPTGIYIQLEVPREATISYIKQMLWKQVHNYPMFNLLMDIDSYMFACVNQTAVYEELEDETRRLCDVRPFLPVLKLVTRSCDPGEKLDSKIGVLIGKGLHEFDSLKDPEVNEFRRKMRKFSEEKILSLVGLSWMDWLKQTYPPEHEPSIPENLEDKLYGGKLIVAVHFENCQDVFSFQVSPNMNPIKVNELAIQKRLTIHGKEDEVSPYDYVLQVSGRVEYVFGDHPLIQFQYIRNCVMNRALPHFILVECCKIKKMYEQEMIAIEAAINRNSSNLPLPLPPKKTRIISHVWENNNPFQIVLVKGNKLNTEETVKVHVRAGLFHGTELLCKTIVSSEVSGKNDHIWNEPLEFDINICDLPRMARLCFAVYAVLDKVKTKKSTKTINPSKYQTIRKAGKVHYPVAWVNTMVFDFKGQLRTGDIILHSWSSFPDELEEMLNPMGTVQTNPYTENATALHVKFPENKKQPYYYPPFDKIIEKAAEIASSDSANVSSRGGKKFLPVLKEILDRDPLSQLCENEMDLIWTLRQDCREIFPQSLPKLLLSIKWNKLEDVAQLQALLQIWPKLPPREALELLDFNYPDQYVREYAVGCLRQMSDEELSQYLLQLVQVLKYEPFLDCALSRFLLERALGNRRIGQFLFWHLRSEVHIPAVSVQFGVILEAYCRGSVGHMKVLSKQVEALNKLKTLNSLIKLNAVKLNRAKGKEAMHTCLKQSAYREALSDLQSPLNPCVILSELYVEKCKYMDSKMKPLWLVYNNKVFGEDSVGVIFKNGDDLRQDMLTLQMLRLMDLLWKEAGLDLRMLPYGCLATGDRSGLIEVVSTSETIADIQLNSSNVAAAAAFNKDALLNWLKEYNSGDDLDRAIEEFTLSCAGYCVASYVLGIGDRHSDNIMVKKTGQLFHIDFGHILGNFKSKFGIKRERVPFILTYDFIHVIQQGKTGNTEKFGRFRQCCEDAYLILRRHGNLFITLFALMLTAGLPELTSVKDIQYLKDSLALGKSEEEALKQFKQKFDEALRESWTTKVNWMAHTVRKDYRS
T4 sequence (P27986 whole entry partner): as the sequence (P27986 whole entry partner) above
T1 sequence (P42336 whole entry): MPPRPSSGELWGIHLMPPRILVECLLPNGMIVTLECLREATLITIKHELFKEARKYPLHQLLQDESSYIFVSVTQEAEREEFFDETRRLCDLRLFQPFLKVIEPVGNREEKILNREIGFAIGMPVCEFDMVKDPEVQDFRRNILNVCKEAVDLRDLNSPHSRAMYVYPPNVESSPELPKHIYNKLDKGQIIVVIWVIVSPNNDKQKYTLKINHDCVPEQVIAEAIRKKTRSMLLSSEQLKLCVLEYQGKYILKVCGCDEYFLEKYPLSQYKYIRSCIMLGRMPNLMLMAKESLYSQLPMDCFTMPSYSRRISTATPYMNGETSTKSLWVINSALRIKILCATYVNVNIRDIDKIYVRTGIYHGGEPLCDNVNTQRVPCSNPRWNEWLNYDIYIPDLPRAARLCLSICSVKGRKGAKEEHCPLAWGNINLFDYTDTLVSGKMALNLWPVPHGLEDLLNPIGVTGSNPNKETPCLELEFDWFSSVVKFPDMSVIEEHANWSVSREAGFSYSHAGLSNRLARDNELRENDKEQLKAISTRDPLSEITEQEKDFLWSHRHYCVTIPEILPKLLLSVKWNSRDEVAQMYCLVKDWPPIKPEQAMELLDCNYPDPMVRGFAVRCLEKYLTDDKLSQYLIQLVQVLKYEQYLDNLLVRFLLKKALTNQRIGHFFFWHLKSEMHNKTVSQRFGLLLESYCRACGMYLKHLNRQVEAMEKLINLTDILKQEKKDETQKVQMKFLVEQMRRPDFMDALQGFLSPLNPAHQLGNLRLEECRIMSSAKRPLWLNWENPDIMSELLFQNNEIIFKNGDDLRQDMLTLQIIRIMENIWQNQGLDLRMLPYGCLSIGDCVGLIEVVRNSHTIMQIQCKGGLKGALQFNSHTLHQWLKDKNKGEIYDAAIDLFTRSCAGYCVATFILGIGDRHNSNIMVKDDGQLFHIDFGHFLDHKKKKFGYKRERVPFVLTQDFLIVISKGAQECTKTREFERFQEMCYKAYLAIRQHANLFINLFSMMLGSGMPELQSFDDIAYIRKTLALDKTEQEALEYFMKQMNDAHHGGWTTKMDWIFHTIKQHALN
T1 sequence (P27986 whole entry partner): as the sequence (P27986 whole entry partner) above

| SMILES | IC50 (PI3K α (p110α/p85α)) [nM] | IC50 (PI3K δ) [nM] | IC50 (mTOR) [nM] | IC50 (PI3K β (p110β/p85α)) [nM] | IC50 (PI3K γ (p110γ)) [nM] | IC50 (PI3K α (p110α/p85α); Table 4 (PI3K α inhibitors)) [nM] | IC50 (mTOR; Table 4 (PI3K α inhibitors)) [nM] | IC50 (PI3K β (p110β/p85α); Table 4 (PI3K α inhibitors)) [nM] | IC50 (PI3K γ (p110γ); Table 4 (PI3K α inhibitors)) [nM] | IC50 (PI3K δ; Table 4 (PI3K α inhibitors)) [nM] |
| --- | --- | --- | --- | --- | --- | --- | --- | --- | --- | --- |
| CN(C)CC(=O)N1CCN(c2cnc3ccc(-c4ccc5oc(N)nc5c4)cc3n2)CC1 [Compound 139] | < 100 | < 1000 | > 10000 | < 1000 | < 1000 | – | – | – | – | – |
| CN1CC(C(=O)N2CCN(c3cnc4ccc(-c5ccc6oc(N)nc6c5)cc4n3)CC2)C1 [Compound 156] | < 100 | < 1000 | > 10000 | < 1000 | < 1000 | – | – | – | – | – |
| Nc1nc2cc(-c3ccc4nc(N)sc4c3)ccc2o1 [Compound 232] | < 1000 | < 10000 | < 10000 | < 1000 | – | – | – | – | – | – |
| Nc1nc2cc(-c3cccc4[nH]nc(N)c34)ccc2o1 [Compound 236] | > 10000 | – | > 10000 | > 10000 | > 10000 | – | – | – | – | – |
| CC(C)Oc1nc(-c2ccc3oc(N)nc3c2)cnc1N [Compound 237] | < 10000 | – | < 1000 | < 10000 | < 10000 | – | – | – | – | – |
| Nc1nc2cc(-c3ccc4nc(N)oc4c3)ccc2o1 [Compound 241] | < 1000 | < 1000 | < 10000 | – | < 100 | – | – | – | – | – |
| Nc1nc2cc(-c3ccc4ncc(N5CC(N6CCOCC6)C5)nc4c3)ccc2o1 [Compound 273] | < 100 | > 10000 | < 1000 | > 10000 | – | – | – | – | – | – |
| CN1CCN(C2CN(c3cnc4ccc(-c5ccc6oc(N)nc6c5)cc4n3)C2)CC1 [Compound 274] | < 100 | < 10000 | < 10000 | < 10000 | – | – | – | – | – | – |
| Nc1nc2cc(-c3ccc4ncc(N5CC(N6CC[C@H](O)C6)C5)nc4c3)ccc2o1 [Compound 322] | < 100 | – | > 10000 | < 1000 | < 1000 | – | – | – | – | – |
| CN(C)[C@@H]1CCN(c2cnc3ccc(-c4ccc5oc(N)nc5c4)cc3n2)C1 [Compound 378] | < 100 | < 10000 | < 1000 | < 100 | – | – | – | – | – | – |
| Nc1nc2cc(-c3ccc4ncc(N5CCNC(C(F)(F)F)C5)nc4c3)ccc2o1 (stereo not shown) [Compound 384] | < 100 | < 10000 | < 1000 | < 1000 | – | – | – | – | – | – |
| CC1(C)CN(C2CN(c3cnc4ccc(-c5ccc6oc(N)nc6c5)cc4n3)C2)CCN1 [Compound 388] | < 100 | < 1000 | < 100 | < 1000 | – | – | – | – | – | – |
| CS(=O)(=O)Nc1cc(-c2ccc3ncc(C(=O)N4CCOCC4)n3c2)cnc1Cl [Compound 418] | < 100 | < 100 | < 100 | < 100 | – | – | – | – | – | – |
| Nc1nc2cc(-c3ccc4ncc(N5CC(N6CCOCC6)C5)nc4n3)ccc2o1 [Compound 556] | – | – | – | – | – | < 100 | < 10000 | > 10000 | – | – |
| C[C@H]1CN(C2CN(c3cnc4ccc(-c5ccc6oc(N)nc6c5)nc4n3)C2)CCN1 [Compound 561] | – | – | – | – | – | < 100 | < 10000 | > 10000 | – | – |
| C[C@@H]1CN(C2CN(c3cnc4ccc(-c5ccc6oc(N)nc6c5)nc4n3)C2)CCN1 [Compound 563] | – | – | – | – | – | < 100 | > 10000 | > 10000 | > 10000 | – |
| C[C@H]1CN(c2cnc3ccc(-c4ccc5oc(N)nc5c4)nc3c2)CCN1 [Compound 598] | – | – | – | – | – | < 100 | > 10000 | < 100 | < 1000 | – |
| Nc1nc2cc(-c3ccc4ncc(N5CC(N6CCOCC6)C5)cc4n3)ccc2o1 [Compound 604] | – | – | – | – | – | < 100 | > 10000 | – | < 1000 | – |
| CC1(C)CN(C2CN(c3cnc4ccc(-c5ccc6oc(N)nc6c5)nc4c3)C2)CCN1 [Compound 609] | – | – | – | – | – | < 100 | > 10000 | – | < 1000 | < 1000 |
| C[C@H]1COCCN1C1CN(c2cnc3ccc(-c4ccc5oc(N)nc5c4)nc3n2)C1 [Compound 612] | – | – | – | – | – | < 100 | > 10000 | > 10000 | – | – |
| Cc1nccn1C1CN(c2cnc3ccc(-c4ccc5oc(N)nc5c4)nc3c2)C1 [Compound 614] | – | – | – | – | – | < 100 | > 10000 | – | < 100 | < 1000 |
| CN1CCN(C2CN(c3cnc4ccc(-c5ccc6oc(N)nc6c5)nc4c3)C2)CC1=O [Compound 615] | – | – | – | – | – | < 100 | < 10000 | – | < 100 | < 1000 |
| Nc1nc2cc(-c3ccc4ncc(N5CC(N6CCN(CCO)CC6)C5)cc4n3)ccc2o1 [Compound 616] | – | – | – | – | – | < 100 | > 10000 | – | < 1000 | < 1000 |
| CCN1CCN(C2CN(c3cnc4ccc(-c5ccc6oc(N)nc6c5)nc4c3)C2)CC1 [Compound 626] | – | – | – | – | – | < 100 | > 10000 | < 1000 | – | < 1000 |
